Columns and labels:
[1] = tested on: calf thymus DNA; assay: Binding of photoproduct to nucleic acid in the dark (DNA-associated tritium counts); conditions: no device, no irradiation
Protocol: The nucleic acid binding properties of photoproduct were investigated with calf thymus DNA. 200 µg/ml of ^3H-AMDMIP (1 x 10^5 CPM/ml) in Taq buffer was irradiated at room temperature with either the CE-III device or the PTI device. This irradiation was performed for 15 minutes in the absence of nucleic acid. Following the irradiations, 200 µl of the irradiated solution was mixed with 200 µl of 1000 µg/ml DNA solution in Taq buffer. Several identical samples were prepared in this manner. one set of samples was allowed to react with the DNA for 2 hours at room temperature. The other set of samples was subjected to 30 cycles of heating and cooling by placing the samples in a thermal cycler [Perkin-Elmer Cetus DNA Thermal Cycler (Part No. N8010150); each cycle involved 93°C for 30 seconds, 55°C for 30 seconds and 72°C for 1 minute]. When the DNA reactions were complete, all samples were analyzed for DNA-associated tritium counts (CPM) by following the flow chart outlined in FIgure 17.
For calculation purposes, these adducts are reported as if they represented monomers of AMDMIP. Regardless of the accuracy of this approximation, the process of irradiating ^3H-AMDMIP clearly results in a tritiated product which associates (i.e. binds) with DNA in the absence of subsequent activating wavelengths of electromagnetic radiation. […]

[2] = tested on: HIV 115-mer; assay: PCR sterilization with pre-irradiated compound (photoproduct) added to PCR product; type: biochemical
Protocol: AMDMIP photoproduct was made by irradiating AMDMIP (using the CE-III device) in 1 x Taq buffer (50 mM KCL, 2.5 mM MgCl2, 10 mM Tris, pH 8.5, 200 µg/ml gelatin) in a separate vessel for 15 minutes at room temperature (RT). Aliquots of AMDMIP photoproduct and the unirradiated compound were added (by pipetting) at 50, 100, 200 and 300 µg/ml to 1 µl aliquots of a 10^6 dilution of PCR product copies. PCR product was provided by a) preparing template, b) providing template, c) providing PCR reagents, d) providing polymerase, e) mixing PCR reagents, template, and polymerase to initiate PCR, f) cycling to synthesize PCR product. Step a): Template Preparation. The templates were derived from actual patient samples. Ficoll-Hypaque separated peripheral blood mononuclear cells (PBMCs) are prepared from individuals enrolled in a longitudinal AIDS study. Approximately 1 X 10^6 cells are added to 10 ml of RPMI containing 10% fetal calf serum. The cells are pelleted by centrifugation at 200 x g for 5 minutes and washed twice with 10 ml PBS. […]
Again, to evaluate the efficacy of this method of sterilization, a subsequent polymerase chain reaction was carried out for 30 cycles in the presence of α-^32P-dCTP. PCR product was then quantitated by running gels (see above), cutting the bands (detected by autoradiography) and counting the bands on a commercial scintillation counter. […]

[3] = tested on: HIV 115-mer; assay: Effect of unirradiated isopsoralen on PCR amplification; type: biochemical; conditions: for Counts (CPM): unirradiated, 30 cycles, 42200 without AMDMIP
Protocol: To systematically evaluate the effect of the presence of increasing concentrations of isopsoralen on PCR, AMDMIP (0, 100, 200, 400 µg/ml) was added to 10^7 copies of HIV 115-mer as template. PCR was then carried out for 30 cycles in the presence of α-^32P-dCTP. The PCR product was run on denaturing polyacrylamide gel and autoradiographed. The bands were thereafter cut and counted.

4'-Aminomethyl-4,5'-dimethylisopsoralen [AMDMIP]
ADDUCTS PER ([1]; dark reaction Room Temp. (2 hours)): 1.1
ADDUCTS PER ([1]; dark reaction Thermally Cycled (30 cycles)): 0.9
sterilization of PCR (30 cycles, autoradiography) ([2]; unirradiated AMDMIP at the same concentration as the photoproduct): PCR product is clearly evident
sterilization of PCR (30 cycles, autoradiography) ([2]; unirradiated compound at 50, 100, 200 and 300 µg/ml): no sterilization
concentrations compatible with the PCR system ([3]; HIV 115-mer system): up to 400 µg/ml
Counts (CPM) ([3]; [AMDMIP] 100 µg/ml): 77200 CPM
Counts (CPM) ([3]; [AMDMIP] 200 µg/ml): 77500 CPM
Counts (CPM) ([3]; [AMDMIP] 400 µg/ml): 69400 CPM

— patent EP0497921B1, “METHOD FOR INHIBITING ENZYMATIC SYNTHESIS OF NUCLEIC ACIDS USING ISOPSORALENS” (ISAACS, Stephen T., priority 1989, dated 1991)
